Measurements reported in ChEMBL document CHEMBL3797185, “Exploring the 2- and 5-positions of the pyrazolo[4,3-d]pyrimidin-7-amino scaffold to target human A1 and A2A adenosine receptors” (Bioorg Med Chem, 2016).

Legend:
[1] = molecular target: T1, Adenosine receptor A2b (Homo sapiens) (UniProt P29275); assay: Antagonist activity at human adenosine A2B receptor expressed in CHO cell membranes assessed as inhibition of NECA-stimulated cAMP level at 1 uM preincubated for 10 mins followed by NECA stimulation by scintillation counting method in presence of [3H]-cyclic AMP; format: functional
T1 sequence (whole entry): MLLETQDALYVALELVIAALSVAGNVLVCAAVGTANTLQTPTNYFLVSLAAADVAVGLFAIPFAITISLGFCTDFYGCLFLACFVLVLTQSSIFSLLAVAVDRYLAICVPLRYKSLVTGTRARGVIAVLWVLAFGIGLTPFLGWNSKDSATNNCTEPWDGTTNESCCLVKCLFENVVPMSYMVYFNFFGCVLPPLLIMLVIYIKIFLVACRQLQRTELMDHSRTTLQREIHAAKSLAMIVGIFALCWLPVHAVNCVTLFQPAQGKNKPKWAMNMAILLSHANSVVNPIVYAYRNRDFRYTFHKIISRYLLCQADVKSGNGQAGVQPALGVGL

Adenosine receptor A3 = molecular target: T2, Adenosine receptor A3 (Homo sapiens, UniProt P0DMS8); assay: Displacement of [125I]-AB-MECA from human adenosine A3 receptor expressed in CHO cell membranes after 60 mins by scintillation counting method
T2 sequence (P0DMS8 whole entry): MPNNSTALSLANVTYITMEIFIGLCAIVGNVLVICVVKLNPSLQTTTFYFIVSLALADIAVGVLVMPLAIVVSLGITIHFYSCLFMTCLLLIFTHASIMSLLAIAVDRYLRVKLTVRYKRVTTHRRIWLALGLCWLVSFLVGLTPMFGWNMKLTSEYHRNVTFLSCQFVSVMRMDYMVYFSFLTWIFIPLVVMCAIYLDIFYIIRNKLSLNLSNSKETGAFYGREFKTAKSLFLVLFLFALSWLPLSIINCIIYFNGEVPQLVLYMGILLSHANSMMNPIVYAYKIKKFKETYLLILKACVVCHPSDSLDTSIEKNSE

Adenosine receptor A2a [2] = molecular target: T3, Adenosine receptor A2a (Homo sapiens, UniProt P29274); assay: Displacement of [3H]-ZM241385 from human adenosine A2A receptor expressed in CHO cell membranes after 60 mins by scintillation counting method
T3 sequence (P29274 whole entry): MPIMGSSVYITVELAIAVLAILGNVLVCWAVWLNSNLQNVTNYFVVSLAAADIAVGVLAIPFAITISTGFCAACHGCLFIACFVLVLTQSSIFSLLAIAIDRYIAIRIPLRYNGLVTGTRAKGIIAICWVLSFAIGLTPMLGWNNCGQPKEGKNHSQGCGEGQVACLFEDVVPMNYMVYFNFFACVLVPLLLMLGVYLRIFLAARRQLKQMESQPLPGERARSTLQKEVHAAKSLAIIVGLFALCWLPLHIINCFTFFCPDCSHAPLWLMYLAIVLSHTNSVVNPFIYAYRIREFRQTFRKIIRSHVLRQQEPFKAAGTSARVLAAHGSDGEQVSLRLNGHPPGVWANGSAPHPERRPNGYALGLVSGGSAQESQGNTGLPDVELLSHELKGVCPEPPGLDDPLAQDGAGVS

Adenosine receptor A1 [3] = molecular target: T4, Adenosine receptor A1 (Homo sapiens, UniProt P30542); assay: Displacement of [3H]-DPCPX from human adenosine A1 receptor expressed in CHO cell membranes after 120 mins by scintillation counting method
T4 sequence (P30542 whole entry): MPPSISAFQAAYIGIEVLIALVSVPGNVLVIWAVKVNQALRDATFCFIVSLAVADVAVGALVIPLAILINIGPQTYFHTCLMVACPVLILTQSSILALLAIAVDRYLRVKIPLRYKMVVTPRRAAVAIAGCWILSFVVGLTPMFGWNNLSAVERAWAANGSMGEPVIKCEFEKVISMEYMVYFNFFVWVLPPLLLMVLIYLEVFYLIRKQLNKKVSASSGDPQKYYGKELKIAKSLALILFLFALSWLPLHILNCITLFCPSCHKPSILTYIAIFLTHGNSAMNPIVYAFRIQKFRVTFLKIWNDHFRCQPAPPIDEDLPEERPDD

[4] = molecular target: T5, Adenosine receptor A1 (Homo sapiens) (UniProt P30542); assay: Displacement of [3H]-DPCPX from human adenosine A1 receptor expressed in CHO cell membranes at 1 uM after 120 mins by scintillation counting method relative to control
T5 sequence (whole entry): T4 sequence (P30542 whole entry)

[5] = molecular target: T6, Adenosine receptor A3 (Homo sapiens) (UniProt P0DMS8); assay: Displacement of [125I]-AB-MECA from human adenosine A3 receptor expressed in CHO cell membranes at 1 uM after 60 mins by scintillation counting method relative to control
T6 sequence (whole entry): T2 sequence (P0DMS8 whole entry)

Adenosine receptor A2a [6] = molecular target: T3, Adenosine receptor A2a; assay: Displacement of [3H]-ZM241385 from human adenosine A2A receptor expressed in CHO cell membranes at 1 uM after 60 mins by scintillation counting method relative to control
Homo sapiens = species: Homo sapiens; assay: Selectivity ratio of Ki for human adenosine A1 receptor to Ki for human adenosine A2A receptor
Adenosine receptor A1 [7] = molecular target: T4, Adenosine receptor A1; assay: Antagonist activity at human adenosine A1 receptor expressed in CHO cell membranes assessed as suppression of CCPA-mediated inhibition of cAMP level by scintillation counting method in presence of [3H]-cyclic AMP; format: functional
Adenosine receptor A2a [8] = molecular target: T3, Adenosine receptor A2a; assay: Antagonist activity at human adenosine A2A receptor expressed in CHO cell membranes assessed as inhibition of NECA-stimulated cAMP level preincubated for 10 mins followed by NECA stimulation by scintillation counting method in presence of [3H]-cyclic AMP; format: functional
Adenosine receptor A2b = molecular target: T7, Adenosine receptor A2b (Homo sapiens, UniProt P29275); assay: Antagonist activity at human adenosine A2B receptor expressed in CHO cell membranes assessed as inhibition of NECA-stimulated cAMP level preincubated for 10 mins followed by NECA stimulation by scintillation counting method in presence of [3H]-cyclic AMP; format: functional
T7 sequence (P29275 whole entry): T1 sequence (whole entry)

| inhibition [1] | Ki (Adenosine receptor A3) | Ki (Adenosine receptor A2a [2]) | Ki (Adenosine receptor A1 [3]) | inhibition [4] | inhibition [5] | inhibition (Adenosine receptor A2a [6]) | Ratio Ki (Homo sapiens) | IC50 (Adenosine receptor A1 [7]) | IC50 (Adenosine receptor A2a [8]) | IC50 (Adenosine receptor A2b) | SMILES |
| --- | --- | --- | --- | --- | --- | --- | --- | --- | --- | --- | --- |
| 28% | 0.209 µM | 0.412 µM | 0.159 µM | – | – | – | – | – | – | – | Nc1nc(-c2cccs2)nc2cn(-c3ccccc3O)nc12 |
| 37% | – | 0.32 µM | – | 32% | 2% | – | – | – | – | – | Nc1nc(-c2ccco2)nc2cn(Cc3ccccc3)nc12 |
| 1% | 0.405 µM | – | 0.103 µM | – | – | 34% | – | – | – | – | COc1ccccc1-n1cc2nc(Cc3ccccc3)nc(N)c2n1 |
| 30% | 0.082 µM | 0.00362 µM | 0.018 µM | – | – | – | 3 | 0.021 µM | 0.00435 µM | – | COc1ccccc1Cn1cc2nc(-c3ccc(C)o3)nc(N)c2n1 |
| 1% | – | – | 0.052 µM | – | 19% | 21% | – | – | – | – | Nc1nc(Cc2ccccc2)nc2cn(-c3ccccc3O)nc12 |
| 1% | – | – | – | 1% | 15% | 1% | – | – | – | – | Nc1nc(Cc2ccccc2)nc2cn(Cc3ccccc3)nc12 |
| 1% | 0.375 µM | 0.147 µM | – | 1% | – | – | – | – | – | – | Cc1ccc(-c2nc(N)c3nn(-c4ccccc4O)cc3n2)o1 |
| – | 0.427 µM | 0.051 µM | 0.252 µM | – | – | – | 3 | – | – | 0.421 µM | Cc1ccc(-c2nc(N)c3nn(Cc4cccc(F)c4)cc3n2)o1 |
| – | 0.225 µM | 0.014 µM | 0.065 µM | – | – | – | 3 | – | – | 0.633 µM | Cc1ccc(-c2nc(N)c3nn(Cc4cccc(O)c4)cc3n2)o1 |
| 3% | – | – | – | 12% | 4% | 33% | – | – | – | – | Nc1nc(-c2ccco2)nc2cn(CCc3ccccc3)nc12 |
| – | 0.905 µM | 0.017 µM | 0.242 µM | – | – | – | 3 | – | – | 0.112 µM | Nc1nc(-c2ccco2)nc2cn(Cc3ccccc3O)nc12 |
| 1% | 0.297 µM | 0.518 µM | – | 1% | – | – | – | – | – | – | COc1ccccc1-n1cc2nc(-c3ccc(C)o3)nc(N)c2n1 |
| – | 0.498 µM | 0.057 µM | 0.309 µM | – | – | – | 3 | – | – | 0.354 µM | Cc1ccc(-c2nc(N)c3nn(Cc4ccccc4F)cc3n2)o1 |

More lines, now with the values behind:

| SMILES | inhibition [1] | Ki (Adenosine receptor A3) | Ki (Adenosine receptor A2a [2]) | Ki (Adenosine receptor A1 [3]) | inhibition [4] | inhibition [5] | inhibition (Adenosine receptor A2a [6]) | Ratio Ki (Homo sapiens) | IC50 (Adenosine receptor A1 [7]) | IC50 (Adenosine receptor A2a [8]) | IC50 (Adenosine receptor A2b) |
| --- | --- | --- | --- | --- | --- | --- | --- | --- | --- | --- | --- |
| COc1ccccc1-n1cc2nc(CCCc3ccccc3)nc(N)c2n1 | 21% | – | 0.647 µM | 0.049 µM | – | 6% | – | – | – | – | – |
| Cc1ccc(-c2nc(N)c3nn(Cc4ccccc4O)cc3n2)o1 | – | 0.122 µM | 0.038 µM | 0.111 µM | – | – | – | 3 | – | – | 0.395 µM |
| Nc1nc(-c2ccco2)nc2cn(-c3ccccc3O)nc12 | 42% | – | 0.089 µM | 0.372 µM | – | 36% | – | – | – | – | – |
| Cc1ccc(-c2nc(N)c3nn(Cc4ccccc4Cl)cc3n2)o1 | – | 0.071 µM | 0.00621 µM | 0.06 µM | – | – | – | 3 | – | – | 0.152 µM |
| Nc1nc(CCCc2ccccc2)nc2cn(-c3ccccc3F)nc12 | 1% | 0.163 µM | – | – | 25% | – | 43% | – | – | – | – |
| Cn1cc2nc(Cc3ccccc3)nc(N)c2n1 | 20% | – | – | – | 9% | 1% | 1% | – | – | – | – |
| Cc1ccc(-c2nc(N)c3nn(Cc4ccccc4)cc3n2)o1 | 20% | 0.269 µM | 0.00923 µM | 0.136 µM | – | – | – | 15 | 0.152 µM | 0.0109 µM | – |
| Cc1nc(N)c2nn(-c3ccccc3F)cc2n1 | 8% | – | – | 0.41 µM | – | 8% | 23% | – | – | – | – |
| Nc1nc(-c2ccco2)nc2cn(-c3ccccc3)nc12 | 1% | – | 0.195 µM | 0.206 µM | – | 39% | – | – | – | – | – |
| Nc1nc(CCCc2ccccc2)nc2cn(-c3ccccc3O)nc12 | 5% | – | 0.24 µM | 0.017 µM | – | 5% | – | – | – | – | – |
| Cn1cc2nc(CCCc3ccccc3)nc(N)c2n1 | 2% | – | – | – | 36% | 30% | 1% | – | – | – | – |
| COc1cccc(Cn2cc3nc(-c4ccc(C)o4)nc(N)c3n2)c1 | – | 0.088 µM | 0.00526 µM | 0.12 µM | – | – | – | 22 | 0.134 µM | 0.00642 µM | 0.293 µM |
| Cc1ccc(-c2nc(N)c3nn(-c4ccccc4)cc3n2)o1 | 32% | 0.147 µM | 0.099 µM | 0.042 µM | – | – | – | – | – | – | – |
| COc1ccccc1-n1cc2nc(-c3ccco3)nc(N)c2n1 | 12% | – | 0.362 µM | – | 31% | 37% | – | – | – | – | – |
| Cc1nc(N)c2nn(Cc3ccccc3)cc2n1 | 1% | – | – | – | 1% | 1% | 1% | – | – | – | – |
| COc1ccccc1Cn1cc2nc(-c3ccco3)nc(N)c2n1 | – | 0.196 µM | 0.00537 µM | 0.098 µM | – | – | – | 3 | 0.106 µM | 0.00621 µM | 0.512 µM |
| Cc1nc(N)c2nn(CCc3ccccc3)cc2n1 | 3% | – | – | – | 10% | 3% | 12% | – | – | – | – |
| COc1ccccc1-n1cc2nc(-c3cccs3)nc(N)c2n1 | 1% | 0.15 µM | – | – | 24% | – | 27% | – | – | – | – |
